Experimental data from US9695154B2, “Heteroaryl inhibitors of sumo activating enzyme” (MILLENNIUM PHARMACEUTICALS, INC., priority 2013, dated 2017).

Target: T1, recombinant human SAE enzyme (Homo sapiens, UniProt Q9UBT2)
T1 sequence (Q9UBT2 1-640): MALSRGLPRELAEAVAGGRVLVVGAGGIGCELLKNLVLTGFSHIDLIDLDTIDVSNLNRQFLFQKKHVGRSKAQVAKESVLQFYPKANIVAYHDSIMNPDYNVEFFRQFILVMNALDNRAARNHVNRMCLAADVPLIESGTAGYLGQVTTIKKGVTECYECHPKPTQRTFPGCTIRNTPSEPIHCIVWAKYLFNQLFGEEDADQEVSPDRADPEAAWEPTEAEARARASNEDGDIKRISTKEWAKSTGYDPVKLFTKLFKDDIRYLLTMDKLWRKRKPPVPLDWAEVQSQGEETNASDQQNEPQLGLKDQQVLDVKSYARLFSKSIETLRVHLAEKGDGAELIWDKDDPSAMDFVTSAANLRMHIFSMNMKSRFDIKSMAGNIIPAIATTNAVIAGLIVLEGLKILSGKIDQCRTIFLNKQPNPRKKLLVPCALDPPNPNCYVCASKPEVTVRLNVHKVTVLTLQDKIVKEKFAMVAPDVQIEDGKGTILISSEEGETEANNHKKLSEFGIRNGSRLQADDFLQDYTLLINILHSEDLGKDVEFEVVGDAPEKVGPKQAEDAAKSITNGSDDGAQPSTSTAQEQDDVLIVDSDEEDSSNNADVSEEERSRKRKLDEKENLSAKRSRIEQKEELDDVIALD
T1 sequence (Q9UBE0 1-346 partner): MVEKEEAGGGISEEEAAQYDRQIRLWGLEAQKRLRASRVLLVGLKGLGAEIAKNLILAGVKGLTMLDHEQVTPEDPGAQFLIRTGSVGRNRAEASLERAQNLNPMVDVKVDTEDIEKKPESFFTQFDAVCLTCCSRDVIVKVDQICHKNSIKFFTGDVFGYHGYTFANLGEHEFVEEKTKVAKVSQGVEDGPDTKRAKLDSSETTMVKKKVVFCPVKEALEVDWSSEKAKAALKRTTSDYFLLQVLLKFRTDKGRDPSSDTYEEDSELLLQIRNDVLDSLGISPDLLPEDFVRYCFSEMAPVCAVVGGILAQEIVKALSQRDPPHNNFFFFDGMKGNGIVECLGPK
Experiment: SAE HTRF Enzyme Assay
Assay type: biochemical
Settings: for IC50: class symbols A-C; for inhibition at 0.111 µM: compound concentration 0.111 μM, read-out: Percent Inhibition
Method in brief: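 HTRF signal from Eu-anti-Flag/APC-anti-GST pairs reports Sumo-Flag loaded onto Ubc9-GST by 0.11 nM SAE. Reaction: 0.5 μM ATP, 0.125 μM Sumo-Flag, 0.01 μM Ubc9-GST, 5 mM MgCl2, pH 7.5, 105 min, 24° C. Single-concentration % inhibition or IC50 reported.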

Row | Compound | IC50 [nM] | inhibition at 0.111 µM [%]
1 | NS(=O)(=O)OC[C@H]1C[C@@H](Nc2ncncc2C(=O)c2ccn(Cc3cc(I)ccc3Cl)n2)C[C@@H]1O [Compound I-104, {(1R,2S,4R)-4-[(5-{[1-(2-chloro-5-iodobenzyl)-1H-pyrazol-3-yl]carbonyl}pyrimidin-4-yl)amino]-2-hydroxycyclopentyl}methyl sulfamate] | < 10 | 100
2 | NS(=O)(=O)OC[C@H]1C[C@@H](Nc2ncncc2C(=O)c2cc(Cl)n(Cc3cccc(Br)c3)c2Cl)[C@@H](F)[C@@H]1O [Compound I-105, {(1R,2R,3R,4R)-4-[(5-{[1-(3-bromobenzyl)-2,5-dichloro-1H-pyrrol-3-yl]carbonyl}pyrimidin-4-yl)amino]-3-fluoro-2-hydroxycyclopentyl}methyl sulfamate] | 100 to 1000 | 18
3 | NS(=O)(=O)OC[C@H]1C[C@@H](Nc2ncncc2C(=O)c2ccn(Cc3ccc(F)cc3)n2)[C@H](O)[C@@H]1O [Compound I-106, {(1R,2R,3S,4R)-4-[(5-{[1-(4-fluorobenzyl)-1H-pyrazol-3-yl]carbonyl}pyrimidin-4-yl)amino]-2,3-dihydroxycyclopentyl}methyl sulfamate] | < 10 | > 99
4 | C/C=C/Cn1ccc(C(=O)c2cncnc2N[C@@H]2C[C@H](COS(N)(=O)=O)[C@@H](O)C2)n1 [Compound I-107, [(1R,2S,4R)-4-{[5-({1-[(2E)-but-2-en-1-yl]-1H-pyrazol-3-yl}carbonyl)pyrimidin-4-yl]amino}-2-hydroxycyclopentyl]methyl sulfamate] | 10 to 100 | 70
5 | N#CCn1ccc(C(=O)c2cncnc2N[C@@H]2C[C@H](COS(N)(=O)=O)[C@@H](O)C2)n1 [Compound I-108, {(1R,2S,4R)-4-[(5-{[1-(cyanomethyl)-1H-pyrazol-3-yl]carbonyl}pyrimidin-4-yl)amino]-2-hydroxycyclopentyl}methyl sulfamate] | 100 to 1000 | 18
6 | CC(C)(O)c1cccc(Cn2ccc(C(=O)c3cncnc3N[C@@H]3C[C@H](COS(N)(=O)=O)[C@@H](O)C3)n2)n1 [Compound I-109, [(1R,2S,4R)-2-hydroxy-4-({5-[(1-{[6-(2-hydroxypropan-2-yl)pyridin-2-yl]methyl}-1H-pyrazol-3-yl)carbonyl]pyrimidin-4-yl}amino)cyclopentyl]methyl sulfamate] | 10 to 100 | 76
7 | NS(=O)(=O)OC[C@H]1C[C@@H](Nc2ncncc2C(=O)c2ccn(Cc3cc4ccccc4o3)c2)[C@@H](F)[C@@H]1O [Compound I-110, {(1R,2R,3R,4R)-4-[(5-{[1-(1-benzofuran-2-ylmethyl)-1H-pyrrol-3-yl]carbonyl}pyrimidin-4-yl)amino]-3-fluoro-2-hydroxycyclopentyl}methyl sulfamate] | < 10 | 99
8 | NS(=O)(=O)OC[C@H]1C[C@@H](Nc2ncncc2C(=O)c2nn(Cc3cccc(Br)c3)cc2Cl)C[C@@H]1O [Compound I-111, {(1R,2S,4R)-4-[(5-{[1-(3-Bromobenzyl)-4-chloro-1H-pyrazol-3-yl]carbonyl}pyrimidin-4-yl)amino]-2-hydroxycyclopentyl}methyl sulfamate] | < 10 | 91
9 | NS(=O)(=O)OC[C@H]1C[C@@H](Nc2ncncc2C(=O)c2ccn(Cc3ccc(Cl)c(F)c3)n2)[C@H](O)[C@@H]1O [Compound I-112, {(1R,2R,3S,4R)-4-[(5-{[1-(4-chloro-3-fluorobenzyl)-1H-pyrazol-3-yl]carbonyl}pyrimidin-4-yl)amino]-2,3-dihydroxycyclopentyl}methyl sulfamate] | < 10 | 97
10 | CC(C)(C)C#CCn1ccc(C(=O)c2cncnc2N[C@@H]2C[C@H](COS(N)(=O)=O)[C@@H](O)C2)n1 [Compound I-113, {(1R,2S,4R)-4-[(5-{[1-(4,4-dimethylpent-2-yn-1-yl)-1H-pyrazol-3-yl]carbonyl}pyrimidin-4-yl)amino]-2-hydroxycyclopentyl}methyl sulfamate] | 10 to 100 | 81
11 | NS(=O)(=O)OC[C@H]1C[C@@H](Nc2ncncc2C(=O)c2ccn(Cc3cc(C(F)(F)F)co3)c2)[C@@H](F)[C@@H]1O [Compound I-114, [(1R,2R,3R,4R)-3-fluoro-2-hydroxy-4-({5-[(1-{[4-(trifluoromethyl)-2-furyl]methyl}-1H-pyrrol-3-yl)carbonyl]pyrimidin-4-yl}amino)cyclopentyl]methyl sulfamate] | < 10 | 98
12 | CC#CCCn1ccc(C(=O)c2cncnc2N[C@@H]2C[C@H](COS(N)(=O)=O)[C@@H](O)C2)n1 [Compound I-115] | 100 to 1000 | 33
13 | C=CC(=O)N(C)c1cccc(Cn2ccc(C(=O)c3cncnc3N[C@@H]3C[C@H](COS(N)(=O)=O)[C@@H](O)[C@@H]3F)n2)c1 [Compound I-116, [(1R,2R,3R,4R)-4-({5-[(1-{3-[Acryloyl(methyl)amino]benzyl}-1H-pyrazol-3-yl)carbonyl]pyrimidin-4-yl}amino)-3-fluoro-2-hydroxycyclopentyl]methyl sulfamate] | 100 to 1000 | 33
14 | NS(=O)(=O)OC[C@H]1C[C@@H](Nc2ncncc2C(=O)c2ccn(Cc3cccc(OC(F)F)c3)n2)C[C@@H]1O [Compound I-117, [(1R,2S,4R)-4-{[5-({1-[3-(difluoromethoxy)benzyl]-1H-pyrazol-3-yl}carbonyl)pyrimidin-4-yl]amino}-2-hydroxycyclopentyl]methyl sulfamate] | < 10 | 98
15 | NS(=O)(=O)OC[C@H]1C[C@@H](Nc2ncncc2C(=O)c2ccn(CCc3cccc4ccccc34)n2)[C@H](O)[C@@H]1O [Compound I-118, [(1R,2R,3S,4R)-2,3-dihydroxy-4-{[5-({1-[2-(1-naphthyl)ethyl]-1H-pyrazol-3-yl}carbonyl)pyrimidin-4-yl]amino}cyclopentyl]methyl sulfamate] | < 10 | 99
16 | NS(=O)(=O)OC[C@H]1C[C@@H](Nc2ncncc2C(=O)c2ccn(Cc3cccc(C(F)(F)F)c3)n2)[C@H](O)[C@@H]1O [Compound I-119, [(1R,2R,3S,4R)-2,3-dihydroxy-4-{[5-({1-[3-(trifluoromethyl)benzyl]-1H-pyrazol-3-yl}carbonyl)pyrimidin-4-yl]amino}cyclopentyl]methyl sulfamate] | < 10 | 98
17 | NS(=O)(=O)OC[C@H]1C[C@@H](Nc2ncncc2C(=O)c2ccn(Cc3cccc(C4(O)COC4)n3)n2)C[C@@H]1O [Compound I-120, [(1R,2S,4R)-2-hydroxy-4-({5-[(1-{[6-(3-hydroxyoxetan-3-yl)pyridin-2-yl]methyl) 1H pyrazol-3-yl)carbonyl]pyrimidin-4-yl}amino)cyclopentyl]methyl sulfamate] | 100 to 1000 | 47
18 | NS(=O)(=O)OC[C@H]1C[C@@H](Nc2ncncc2C(=O)c2ccn(Cc3ccc(F)cc3C(F)(F)F)n2)[C@H](O)[C@@H]1O [Compound I-121, [(1R,2R,3S,4R)-4-{[5-({1-[4-fluoro-2-(trifluoromethyl)benzyl]-1H-pyrazol-3-yl}carbonyl)pyrimidin-4-yl]amino}-2,3-dihydroxycyclopentyl]methyl sulfamate] | < 10 | 94
19 | NS(=O)(=O)OC[C@H]1C[C@@H](Nc2ncncc2C(=O)c2ccn(Cc3ccc(F)c(Cl)c3)n2)[C@@H](F)[C@@H]1O [Compound I-122, {(1R,2R,3R,4R)-4-[(5-{[1-(3-chloro-4-fluorobenzyl)-1H-pyrazol-3-yl]carbonyl}pyrimidin-4-yl)amino]-3-fluoro-2-hydroxycyclopentyl}methyl sulfamate] | < 10 | 99
20 | NS(=O)(=O)OC[C@H]1C[C@@H](Nc2ncncc2C(=O)c2ccn(Cc3cccc(F)c3)n2)[C@H](O)[C@@H]1O [Compound I-123, {(1R,2R,3S,4R)-4-[(5-{[1-(3-fluorobenzyl)-1H-pyrazol-3-yl]carbonyl}pyrimidin-4-yl)amino]-2,3-dihydroxycyclopentyl}methyl sulfamate] | < 10 | 100
21 | NS(=O)(=O)OC[C@H]1C[C@@H](Nc2ccncc2C(=O)c2ccn(Cc3cccc(Cl)c3)c2)[C@@H](F)[C@@H]1O [Compound I-124, {(1R,2R,3R,4R)-4-[(3-{[1-(3-chlorobenzyl)-1H-pyrrol-3-yl]carbonyl}pyridin-4-yl)amino]-3-fluoro-2-hydroxycyclopentyl}methyl sulfamate] | < 10 | 97
